Tests used:
[1] = hygroscopicity and handling of the solid; format: physicochemical; conditions: when concentrated and solidified / powder
Excerpt: On the other hand, the crystal of the compound A was a non-hygroscopic powder, which was easily handled.

[2] = stability of compound A in aqueous solution by pH (hydrolysis seen by HPLC); format: physicochemical
Excerpt: The difficult point when the crystal of the compound A is obtained by the present method is in removing citric acid from the aqueous solution containing the compound A and citric acid in an acidic condition. Since the compound A is unstable in a neutral to alkaline (pH of 5 or higher) aqueous solution, in order to suppress decomposition of the compound A, maintenance of an acidic condition is important. Therefore, the aqueous solution containing the compound A and citric acid and having a pH of 2.0 or lower to be used in the step (a) may be an aqueous solution whose pH is preferably 0.6 to 1.8 and most preferably 1.0 to 1.6. […]
The purified precipitate obtained at a pH of 3.6 by the above operation and the purified precipitate obtained at a pH of 6.0 thereby were each evaluated by qualitative analysis using HPLC (FIG. 5, FIG. 6). The each precipitate (about 10 mg) was dissolved in purified water (about 1 mL), diluted 40-fold with a 10 mM perchloric acid solution being a mobile phase of the qualitative analysis using HPLC, and analyzed (by being diluted with the 10 mM perchloric acid solution, which was an acidic solvent, the Ca salts of the compound A were converted to the compound A, thus the detection was made as the compound A.). […]

[3] = solubility in isopropanol-water mixed solvent; format: physicochemical; conditions: mixed solvent of isopropanol and water, ratio of isopropanol 40% or higher
Protocol: A highly purified crystalline powder of the compound A was obtained by repeating three times the same operation as in the recrystallization described in the paragraph of Example 3. 100 mL of purified water (Japanese Pharmacopoeia purified water) was added to 10 g of the crystalline powder, which was then dissolved by heating the resultant in a water bath at 50° C. The resultant solution was filtered by using a membrane filter (Merck Millipore) of 0.22 μm in pore size, and the resultant filtrate was collected. The filtrate was concentrated by using an evaporator on a water bath at 40° C. to thereby collect the resultant as an about 50 ml of a solution. This solution was concentrated and […] to thereby become a solution in a supersaturated state. The solution as it was in the heated state (40° C.) was dispensed in test tubes with a lid so as to have solvent ratios indicated in the following Table (Table 4) to thereby produce solutions having mixed solvents. Specifically, by adding 100 μL of organic solvents of methanol, ethanol, acetone and the like to 400 μL of the supersaturated solution, there was made a solution having a water ratio in the mixed solvent of 80%. […]

liver disorder = conditions: known active substance; cited from earlier work

O=C(O)C[C@@H](C(=O)O)N1C(=O)C[C@@](O)(CC(=O)O)C1=O [noncrystal of the compound A]
hygroscopicity [1]: had hygroscopicity

O=C(O)CC(C(=O)O)N1C(=O)CC(O)(CC(=O)O)C1=O (stereo not drawn) [compound A]
hydrolysis of the imide structure ([2]; alkali added for the pH to be 6.0, 80% ethanol precipitation, HPLC): hydrolysis of the compound A progressed
stability in aqueous solution ([2]; neutral to alkaline (pH of 5 or higher) aqueous solution): unstable
solubility [3]: decreased
inhibitory effect against liver disorder (liver disorder): inhibitory effect against liver disorder

O=C(O)CC(C(=O)O)N1C(=O)C[C@@](O)(CC(=O)O)C1=O (stereo partly drawn) [crystal of the compound A]
hygroscopicity [1]: non-hygroscopic

Source: patent US20200055821A1, “METHOD FOR MANUFACTURING DIASTEREOMER OF CITRIC ACID DERIVATIVE” (OTSUKA PHARMACEUTICAL FACTORY, INC., priority 2017, published 2020)
